From US20080008754A1, “Pharmaceutical Compositions Comprising (+)-(2S,3S)-2-(3-Chlorophenyl)-3,5,5-Trimethyl-2-Morpholinol” (SMITHKLINE BEECHAM CORPORATION, priority 2004, published 2008)

Experiment: Solubility in an acidic environment
Format: physicochemical
Settings: aqueous buffer

Work on `C[C@@H]1NC(C)(C)CO[C@@]1(O)c1cccc(Cl)c1` [compound of formula (I), (+)-(2S,3S)-2-(3-chlorophenyl)-3,5,5-trimethyl-2-morpholinol] yielded a solubility of about 150 mg/mL.
